Holding throughout (type): in vivo
Experiment [1] concerns Kochia scoparia. In words: Herbicidal post-emergence action. Conditions: visual assessment after ca. 3 weeks vs untreated controls.
Source text: (§1) Seeds of mono- and dicotyledonous weed plants were sown in plastic pots (double sowings with one species of mono- and one species of dicotyledonous weed plants per pot), in sandy loam, covered with soil and grown under controlled growth conditions. 2 to 3 weeks after sowing, the test plants were sprayed in the single-leaf stage. The compounds according to the invention, formulated in the form of wettable powders (WP) or as emulsifiable concentrates (EC), were sprayed onto the green plant parts as an aqueous suspension or as an emulsion, with the addition of 0.5% of an additive, at an application rate of 600 litres of water per hectare (converted). The test plants were placed in the greenhouse for ca. 3 weeks under optimum growth conditions, and then the effect of the preparations is assessed visually in comparison with untreated controls (herbicidal effect in percent (%): 100% effect = plants have died, 0% effect = as control plants).
as §1, with “(EC), are” for “(EC), were”, “controls (herbicidaleffectinpercent(%):100%effect=plantshavedied,0%effect=ascontrolplants). [formula]” for “controls (herbicidal effect in percent (%): 100% effect = plants have died, 0% effect = as control plants).”

Experiment [2] relates to Digitaria sanguinalis. Kind of experiment: Herbicidal post-emergence action. Conditions: 1280 g/ha, visual assessment after ca. 3 weeks vs untreated controls.
Source text: as §1
as §1, with “(EC), are” for “(EC), were”, “controls (herbicidaleffectinpercent(%):100%effect=plantshavedied,0%effect=ascontrolplants). [formula]” for “controls (herbicidal effect in percent (%): 100% effect = plants have died, 0% effect = as control plants).”

The test system of experiment [3] is Lolium rigidum. Kind of experiment: Herbicidal post-emergence action. Conditions: visual assessment after ca. 3 weeks vs untreated controls.
Source text: as §1
as §1, with “(EC), are” for “(EC), were”, “controls (herbicidaleffectinpercent(%):100%effect=plantshavedied,0%effect=ascontrolplants). [formula]” for “controls (herbicidal effect in percent (%): 100% effect = plants have died, 0% effect = as control plants).”

Experiment [4] relates to Amaranthus retroflexus. Kind of experiment: Herbicidal post-emergence action. As to conditions: 1280 g/ha, visual assessment after ca. 3 weeks vs untreated controls.
Source text: as §1
as §1, with “(EC), are” for “(EC), were”, “controls (herbicidaleffectinpercent(%):100%effect=plantshavedied,0%effect=ascontrolplants). [formula]” for “controls (herbicidal effect in percent (%): 100% effect = plants have died, 0% effect = as control plants).”

In experiment [5] the test system is Alopecurus myosuroides. Kind of experiment: Herbicidal post-emergence action. As to conditions: 1280 g/ha, visual assessment after ca. 3 weeks vs untreated controls.
Source text: as §1
as §1, with “(EC), are” for “(EC), were”, “controls (herbicidaleffectinpercent(%):100%effect=plantshavedied,0%effect=ascontrolplants). [formula]” for “controls (herbicidal effect in percent (%): 100% effect = plants have died, 0% effect = as control plants).”

The subject of experiment [6] is Matricaria inodora. Kind of experiment: Herbicidal post-emergence action. Conditions: visual assessment after ca. 3 weeks vs untreated controls.
Source text: as §1
as §1, with “(EC), are” for “(EC), were”, “controls (herbicidaleffectinpercent(%):100%effect=plantshavedied,0%effect=ascontrolplants). [formula]” for “controls (herbicidal effect in percent (%): 100% effect = plants have died, 0% effect = as control plants).”

The subject of experiment [7] is Stellaria media. In words: Herbicidal post-emergence action. As to conditions: visual assessment after ca. 3 weeks vs untreated controls.
Source text: as §1
as §1, with “(EC), are” for “(EC), were”, “controls (herbicidaleffectinpercent(%):100%effect=plantshavedied,0%effect=ascontrolplants). [formula]” for “controls (herbicidal effect in percent (%): 100% effect = plants have died, 0% effect = as control plants).”

Experiment [8] concerns Poa annua. Kind of experiment: Herbicidal post-emergence action. Conditions: visual assessment after ca. 3 weeks vs untreated controls.
Source text: as §1
as §1, with “(EC), are” for “(EC), were”, “controls (herbicidaleffectinpercent(%):100%effect=plantshavedied,0%effect=ascontrolplants). [formula]” for “controls (herbicidal effect in percent (%): 100% effect = plants have died, 0% effect = as control plants).”

The subject of experiment [9] is Veronica persica. In words: Herbicidal post-emergence action. As to conditions: visual assessment after ca. 3 weeks vs untreated controls.
Source text: as §1
as §1, with “(EC), are” for “(EC), were”, “controls (herbicidaleffectinpercent(%):100%effect=plantshavedied,0%effect=ascontrolplants). [formula]” for “controls (herbicidal effect in percent (%): 100% effect = plants have died, 0% effect = as control plants).”

For experiment [10], the system named is Abutilon theophrasti. Kind of experiment: Herbicidal post-emergence action. Conditions: 1280 g/ha, visual assessment after ca. 3 weeks vs untreated controls.
Source text: as §1
as §1, with “(EC), are” for “(EC), were”, “controls (herbicidaleffectinpercent(%):100%effect=plantshavedied,0%effect=ascontrolplants). [formula]” for “controls (herbicidal effect in percent (%): 100% effect = plants have died, 0% effect = as control plants).”

Experiment [11] deals with Digitaria sanguinalis. Kind of experiment: Herbicidal pre-emergence action. As to conditions: 1280 g/ha, visual grading after ca. 3 weeks vs untreated controls. An excerpt: (§2) Seeds of mono- and dicotyledonous weed plants were sown in plastic pots (double sowings with one species of mono- and one species of dicotyledonous weed plants per pot), in sandy loam, and covered with soil. The compounds according to the invention, formulated in the form of wettable powders (WP) or as emulsifiable concentrates (EC), were applied to the surface of the covering soil as an aqueous suspension or as an emulsion, with the addition of 0.5% of an additive, at an application rate of 600 litres of water per hectare (converted). Following treatment, the pots were placed in a greenhouse and kept under optimum growth conditions for the test plants. The visual grading of the damage to the test plants is carried out after ca. 3 weeks in comparison to untreated controls (herbicidal effect in percent (%): 100% effect = plants have died, 0% effect = as control plants). Seeds of mono- and dicotyledonous weed plants were sown in plastic pots (double sowings with one species of mono- and one species of dicotyledonous weed plants per pot), in sandy loam, and covered with soil. The compounds according to the invention, formulated in the form of wettable powders (WP) or as emulsifiable concentrates (EC), were applied to the surface of the covering soil as an aqueous suspension or as an emulsion, with the addition of 0.5% of an additive, at an application rate of 600 litres of water per hectare (converted). Following treatment, the pots were placed in a greenhouse and kept under optimum growth conditions for the test plants. The visual grading of the damage to the test plants is carried out after ca. 3 weeks in comparison to untreated controls (herbicidal effect in percent (%): 100% effect = plants have died, 0% effect = as control plants).

Experiment [12] concerns Lolium rigidum. Kind of experiment: Herbicidal pre-emergence action. As to conditions: visual grading after ca. 3 weeks vs untreated controls.
Source text: as §2

Experiment [13] has as its system Alopecurus myosuroides. Kind of experiment: Herbicidal pre-emergence action. Conditions: 1280 g/ha, visual grading after ca. 3 weeks vs untreated controls.
Source text: as §2

Experiment [14] deals with Matricaria inodora. In words: Herbicidal pre-emergence action. As to conditions: 1280 g/ha, visual grading after ca. 3 weeks vs untreated controls.
Source text: as §2

The subject of experiment [15] is Stellaria media. Kind of experiment: Herbicidal pre-emergence action. Conditions: 1280 g/ha, visual grading after ca. 3 weeks vs untreated controls.
Source text: as §2

Experiment [16] deals with Poa annua. In words: Herbicidal pre-emergence action. Conditions: visual grading after ca. 3 weeks vs untreated controls.
Source text: as §2

In experiment [17] the test system is Veronica persica. In words: Herbicidal pre-emergence action. As to conditions: 1280 g/ha, visual grading after ca. 3 weeks vs untreated controls.
Source text: as §2

The test system of experiment [18] is Amaranthus retroflexus. In words: Herbicidal pre-emergence action. Conditions: 1280 g/ha, visual grading after ca. 3 weeks vs untreated controls.
Source text: as §2

For experiment [19], the system named is Kochia scoparia. In words: Herbicidal pre-emergence action. As to conditions: 1280 g/ha, visual grading after ca. 3 weeks vs untreated controls.
Source text: as §2

The test system of the next experiment is Echinochloa crus-galli. In words: Herbicidal pre-emergence action. As to conditions: 1280 g/ha, visual grading after ca. 3 weeks vs untreated controls.
Source text: as §2

Experiment [20] deals with Abutilon theophrasti. In words: Herbicidal pre-emergence action. As to conditions: 1280 g/ha, visual grading after ca. 3 weeks vs untreated controls.
Source text: as §2

With `O=C(Nc1ncns1)c1c(Br)cncc1Br` [Example I-015], in the experiment on Kochia scoparia [1] (1280 g/ha), the “herbicidal effect in percent (%), KCHSC” value is listed as 100%. Besides, the “herbicidal effect in percent (%), DIGSA” value in the experiment on Digitaria sanguinalis [2] and with Digitaria sanguinalis [11] was 100% in each case. In addition, the results for the “herbicidal effect in percent (%), LOLRI” value in the experiment on Lolium rigidum [3] (1280 g/ha) and in the experiment with Lolium rigidum [12] (1280 g/ha) were 100% and 90%, respectively. The “herbicidal effect in percent (%), AMARE” value in the experiment on Amaranthus retroflexus [4] is on record as 90%. In addition, the “herbicidal effect in percent (%), ALOMY” value in the experiment with Alopecurus myosuroides [5] and in the experiment with Alopecurus myosuroides [13] was 100% in each case. Moreover, the “herbicidal effect in percent (%), MATIN” value with Matricaria inodora [6] (320 g/ha), with Matricaria inodora [6] (1280 g/ha) and in the experiment with Matricaria inodora [14] was 100% each time. Also, the “herbicidal effect in percent (%), STEME” value in the experiment on Stellaria media [7] (320 g/ha) was 100%; in the experiment on Stellaria media [7] (1280 g/ha) it was 100%; in the experiment on Stellaria media [15] it was 90%. For the same compound, the “herbicidal effect in percent (%), POAAN” value in the experiment with Poa annua [8] (320 g/ha), in the experiment with Poa annua [8] (1280 g/ha), in the experiment on Poa annua [16] (320 g/ha) and with Poa annua [16] (1280 g/ha) was 100% in each case. Besides, the “herbicidal effect in percent (%), VERPE” value with Veronica persica [9] (320 g/ha), in the experiment on Veronica persica [9] (1280 g/ha) and in the experiment with Veronica persica [17] was 100% in each case. In addition, the “herbicidal effect in percent (%), ABUTH” value in the experiment with Abutilon theophrasti [10] was 100%.
Regarding `O=C(Nc1nc(Cl)ns1)c1ccncc1I` [Example 1-023, N-(3-chloro-1,2,4-thiadiazol-5-yl)-3-iodo-pyridine-4-carboxamide], in the experiment on Kochia scoparia [1] (1280 g/ha), the “herbicidal effect in percent (%), KCHSC” value amounted to 90%. For the same compound, the “herbicidal effect in percent (%), AMARE” value in the experiment with Amaranthus retroflexus [4] turned out to be 90%; in the experiment on Amaranthus retroflexus [18], 100%. The “herbicidal effect in percent (%), MATIN” value in the experiment with Matricaria inodora [6] (1280 g/ha) and with Matricaria inodora [14] was 100% in each case. Also, the “herbicidal effect in percent (%), STEME” value in the experiment on Stellaria media [7] (1280 g/ha) is on record as 90%; with Stellaria media [15] it was 100%. Also, in the experiment with Poa annua [8] (1280 g/ha), the “herbicidal effect in percent (%), POAAN” value is 90%. Further, in the experiment on Lolium rigidum [12] (1280 g/ha), the “herbicidal effect in percent (%), LOLRI” value is listed as 90%.
On to `O=C(Nc1ncns1)c1cc(Cl)ncc1C(F)(F)F` [Example I-013, 2-chloro-N-(1,2,4-thiadiazol-5-yl)-5-(trifluoromethyl)pyridine-4-carboxamide], for which the “herbicidal effect in percent (%), KCHSC” value in the experiment on Kochia scoparia [1] (320 g/ha), with Kochia scoparia [1] (1280 g/ha) and with Kochia scoparia [19] was 100% each time. The “herbicidal effect in percent (%), LOLRI” value in the experiment on Lolium rigidum [3] (320 g/ha) is on record as 90%; with Lolium rigidum [3] (1280 g/ha) it was 100%; in the experiment with Lolium rigidum [12] (320 g/ha), 90%; in the experiment on Lolium rigidum [12] (1280 g/ha) it was 100%. In addition, the “herbicidal effect in percent (%), AMARE” value in the experiment on Amaranthus retroflexus [4] and with Amaranthus retroflexus [18] was 100% in each case. Also, the “herbicidal effect in percent (%), ALOMY” value in the experiment on Alopecurus myosuroides [5] and in the experiment with Alopecurus myosuroides [13] was 90% in each case. The “herbicidal effect in percent (%), MATIN” value with Matricaria inodora [6] (320 g/ha), with Matricaria inodora [6] (1280 g/ha) and in the experiment with Matricaria inodora [14] was 100% throughout. Further, the “herbicidal effect in percent (%), STEME” value in the experiment on Stellaria media [7] (320 g/ha), in the experiment with Stellaria media [7] (1280 g/ha) and with Stellaria media [15] was 100% in each case. Besides, the “herbicidal effect in percent (%), POAAN” value is reported as 100% with Poa annua [8] (320 g/ha), 100% with Poa annua [8] (1280 g/ha) and 90% with Poa annua [16] (1280 g/ha). The “herbicidal effect in percent (%), VERPE” value in the experiment on Veronica persica [9] (320 g/ha), in the experiment with Veronica persica [9] (1280 g/ha) and with Veronica persica [17] was 100% in each case. The “herbicidal effect in percent (%), ECHCG” value with Echinochloa crus-galli is listed as 100%. Also, in the experiment on Abutilon theophrasti [20], the “herbicidal effect in percent (%), ABUTH” value came out at 90%.

(Values after patent EP4238973A1, “SUBSTITUTED 1,2,4-THIADIAZOLYL ISONICOTINAMIDES, SALTS OR N-OXIDES THEREOF AND THEIR USE AS HERBICIDALLY ACTIVE SUBSTANCES” (Bayer AG, priority 2022, dated 2023).)
